According to publication PMC10766610, “DCAF1-based PROTACs with activity against clinically validated targets overcoming intrinsic- and acquired-degrader resistance” (Nature Communications, 2024):
Like-named read-outs stand apart in the source and are kept apart here.

Experiments:
BRD9 [1] = target: T1, BRD9 (Homo sapiens, UniProt Q9H8M2); experiment: BRD9-HiBiT protein abundance luminescence assay in HEK293 cells; conditions: 2 h
T1 sequence (Q9H8M2 1-597): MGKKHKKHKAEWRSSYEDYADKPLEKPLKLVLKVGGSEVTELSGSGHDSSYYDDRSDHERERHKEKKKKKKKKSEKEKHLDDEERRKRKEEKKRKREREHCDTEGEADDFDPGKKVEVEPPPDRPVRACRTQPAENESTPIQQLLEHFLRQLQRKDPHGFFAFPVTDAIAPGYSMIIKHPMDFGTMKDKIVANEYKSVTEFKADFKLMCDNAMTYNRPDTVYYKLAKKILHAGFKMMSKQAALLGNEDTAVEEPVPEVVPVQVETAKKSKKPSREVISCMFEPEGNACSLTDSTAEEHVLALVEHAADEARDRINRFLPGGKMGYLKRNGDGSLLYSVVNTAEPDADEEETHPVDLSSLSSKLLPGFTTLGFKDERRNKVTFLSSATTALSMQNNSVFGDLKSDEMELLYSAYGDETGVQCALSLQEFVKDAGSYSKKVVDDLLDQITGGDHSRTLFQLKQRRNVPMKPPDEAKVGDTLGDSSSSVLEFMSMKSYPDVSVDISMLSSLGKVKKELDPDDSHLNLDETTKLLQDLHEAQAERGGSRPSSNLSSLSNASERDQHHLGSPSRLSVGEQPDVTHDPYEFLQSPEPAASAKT
Excerpt: HEK293/BRD9-HiBiT pools (PROMEGA # CS3023120) and HEK293/BRD7-HiBiT pools (PROMEGA # CS3023124) were purchased from Promega. We performed clonal selection for HEK293/BRD9-HiBiT cell line using single-cell sorting and screening for HiBiT expression using Nano-Glo HiBiT Lytic Detection System (Promega # N3030). The HEK293/BRD9-HiBiT clone and HEK293/BRD7-HiBiT pool to perform standard HiBiT assays.

[2] = test system: TMD8 WT and TMD8 CRBN resist. cells; experiment: CellTiter-Glo viability, TMD8 WT vs CRBN resist. cells; format: cell-based, human; conditions: CellTiter-Glo proliferation
Protocol: TMD8 cells were grown in the presence of a CRBN-BTK PROTAC CBt using a gradual dose increase. Start treatment was 0.1 nM for 6 weeks, followed by 3 weeks at 0.4 nM and another 4 weeks at 10 nM to finally obtain CBt resistant TMD8 cells (TMD8 CRBN resist.).
d) Viability measured by cell titer-Glo for DBt-10 (green) vs (13) (purple) in WT (solid) vs CRBN resist.
(dotted) TMD8 cells. Data represents average ± standard deviation from n=3 replicates.
e) Repeat of the viability measured by cell titer-Glo for DBt-10 (green) vs (13) (purple) in WT (solid) vs
CRBN resist. (dotted) TMD8 cells with adjusted dose response range. Data represents average ±
standard deviation from n=3 replicates.
(§1) Source data are provided as a Source Data file

BTK = BTK (Homo sapiens, UniProt Q06187); experiment: Immunoblot of BTK in TMD8 WT and CRBN (CBt) resistant cells; format: cell-based; parameters: performed with full-length BTK and endogenous DCAF1; expressed in transfected cells; host or cells: TMD8 cells, lentiviral, blasticidin-selected (TMD8 BTK-GFP/mCh); conditions: 24 h; 0.1 µM CBt, 1 µM DBt-10
Protocol: (§2) Whole cell lysates for immunoblotting were prepared by pelleting cells at 4 °C (300 g) for 3 min. Cell pellets were then washed 1x with PBS and resuspended in RIPA lysis buffer (VWR, cat # 97063-270) supplemented with protease (Thermo Scientific, cat # A32955) and phosphatase (Thermo Scientific, cat # A32957) inhibitor tablets. Lysates were clarified at 16,000 × g for 15 min at 4 °C prior to quantification by Lowry assay (Bio-Rad cat # 5000113 and cat # 5000114). Whole-cell lysates were loaded into 4–20% Criterion TGX Precast 18 well gels (Bio-Rad, cat # 5671094) and separated by electrophoreses at 120 V for 1 h. The gels were transferred to a nitrocellulose membrane using the Trans-Blot Turbo (Bio-Rad) for 7 min and then blocked for 1 h at room temperature in Odyssey blocking buffer (LICOR Biosciences, cat # 927-50000). Membranes were probed with the appropriate primary antibodies (diluted 1:1000) overnight at 4 °C in 20% Odyssey blocking buffer in 1x TBST. Membranes were washed three times with 1x TBST (5 min per wash), and then incubated with IRDye goat anti-mouse (LICOR, cat # 926-32210) or goat anti-rabbit (LICOR, cat # 926-32211) secondary antibody diluted 1:10,000 in 20% Odyssey blocking buffer for 1 h at room temperature. After three 5-min washes with 1x TBST, the immunoblots were visualized using the ODYSSEY Infrared Imaging System (LICOR). […]

LIMK2 = target: T2, LIMK2 (Homo sapiens, UniProt P53671); experiment: Immunoblot of LIMK2 in HEK293T cells; format: cell-based; conditions: 6 h
T2 construct: host or cells: HEK293T
Protocol: as §2

LYN = target: T3, LYN (Homo sapiens, UniProt P07948); experiment: Immunoblot of LYN in HEK293T cells; format: cell-based; conditions: 6 h
T3 construct: host or cells: HEK293T
Protocol: as §2

BRD9 [3] = target: T1, BRD9; experiment: Rescue of DBr-1 mediated BRD9 degradation by co-treatment, BRD9-HiBiT HEK293 cells; format: cell-based; parameters: host or cells: HEK293/BRD9-HiBiT knock-in; clone and BRD9-HiBiT/CAS9/FF clone; conditions: (13) 1 µM, OICR8268 10 µM, BI-9564 10 µM
Protocol: Supplementary figure 4. Competition experiments with DBr-1 and DBr-1-N […]
a) BRD9-HiBiT signal detection of samples pretreated with either DMSO, 10µM OICR-8268, 1µM […]
Data represents average ± standard deviation from n=3 replicates. DC50 values and […]
maximal observed degradation are shown below. […]
b) Cell titer Glow assay of BRD9 HiBiT cells. Cells pretreated with either DMSO, 10µM OICR-8268, […]
Data represents average ± standard deviation from n=3 replicates.
as §1

BTK, sequence (Q06187 2-659 limits assumed): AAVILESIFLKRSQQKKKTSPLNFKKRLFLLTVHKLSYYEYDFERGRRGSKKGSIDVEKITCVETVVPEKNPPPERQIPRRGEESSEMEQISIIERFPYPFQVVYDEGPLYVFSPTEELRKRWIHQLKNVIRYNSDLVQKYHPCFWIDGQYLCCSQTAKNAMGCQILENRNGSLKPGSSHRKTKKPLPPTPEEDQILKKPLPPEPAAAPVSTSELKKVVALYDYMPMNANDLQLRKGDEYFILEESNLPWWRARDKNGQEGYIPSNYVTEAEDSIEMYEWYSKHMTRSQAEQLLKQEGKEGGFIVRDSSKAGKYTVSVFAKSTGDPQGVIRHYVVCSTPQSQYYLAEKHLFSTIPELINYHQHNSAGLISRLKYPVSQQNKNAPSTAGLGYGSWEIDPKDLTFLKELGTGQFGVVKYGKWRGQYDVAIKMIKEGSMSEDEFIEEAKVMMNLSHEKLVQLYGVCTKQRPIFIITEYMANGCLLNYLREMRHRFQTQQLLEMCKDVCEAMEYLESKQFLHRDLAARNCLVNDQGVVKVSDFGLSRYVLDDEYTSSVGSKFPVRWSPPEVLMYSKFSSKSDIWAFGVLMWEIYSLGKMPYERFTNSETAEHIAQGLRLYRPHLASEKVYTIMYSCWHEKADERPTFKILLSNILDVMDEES
T2 sequence (P53671 whole entry): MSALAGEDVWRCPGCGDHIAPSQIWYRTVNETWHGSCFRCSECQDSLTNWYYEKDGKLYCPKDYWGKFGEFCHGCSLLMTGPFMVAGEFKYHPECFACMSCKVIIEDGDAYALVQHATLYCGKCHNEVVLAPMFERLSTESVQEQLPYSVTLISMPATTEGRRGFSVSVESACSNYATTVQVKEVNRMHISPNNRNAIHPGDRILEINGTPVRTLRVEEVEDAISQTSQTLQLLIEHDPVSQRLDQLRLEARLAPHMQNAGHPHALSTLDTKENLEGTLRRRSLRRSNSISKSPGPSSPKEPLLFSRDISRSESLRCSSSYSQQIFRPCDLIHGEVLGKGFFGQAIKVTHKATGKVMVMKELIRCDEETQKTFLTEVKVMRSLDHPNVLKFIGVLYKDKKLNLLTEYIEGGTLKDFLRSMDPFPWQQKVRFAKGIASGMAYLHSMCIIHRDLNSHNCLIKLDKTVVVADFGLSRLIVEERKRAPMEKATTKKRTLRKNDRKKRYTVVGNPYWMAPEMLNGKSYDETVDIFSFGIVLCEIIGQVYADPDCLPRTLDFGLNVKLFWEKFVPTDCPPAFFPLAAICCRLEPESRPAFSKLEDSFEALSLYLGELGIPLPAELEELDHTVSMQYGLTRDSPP
T3 sequence (P07948 whole entry): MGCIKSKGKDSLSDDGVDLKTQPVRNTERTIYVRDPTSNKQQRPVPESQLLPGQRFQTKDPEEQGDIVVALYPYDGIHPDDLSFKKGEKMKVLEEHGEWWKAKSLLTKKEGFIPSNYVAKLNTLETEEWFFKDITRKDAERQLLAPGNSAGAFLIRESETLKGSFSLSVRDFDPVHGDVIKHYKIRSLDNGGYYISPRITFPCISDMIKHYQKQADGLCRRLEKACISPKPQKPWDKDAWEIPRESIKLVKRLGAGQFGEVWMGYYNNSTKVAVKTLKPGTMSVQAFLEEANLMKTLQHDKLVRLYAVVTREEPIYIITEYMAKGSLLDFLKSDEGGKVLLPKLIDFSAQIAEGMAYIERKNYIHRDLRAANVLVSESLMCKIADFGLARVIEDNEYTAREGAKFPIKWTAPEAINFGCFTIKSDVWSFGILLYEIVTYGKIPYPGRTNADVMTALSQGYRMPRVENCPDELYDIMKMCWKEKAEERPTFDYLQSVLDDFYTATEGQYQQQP

Structure (SMILES): COc1cc(-c2cn(C)c(=O)c3cnccc23)c(OC)cc1CN1CCC(OCCCCCC(=O)N2CCN(c3ccc4c(NCCN)nc(C5(c6ccc(Cl)cc6)CCCCC5)nc4c3)CC2)CC1 [DBr-1]
- DC50 (BRD9 [1]; read-out: DC50 BRD9-HiBiT, BRD9-HiBiT/CAS9/FF cells): 193 nM
- DC50 (BRD9 [1]; read-out: DC50 BRD9, HEK293/BRD9-HiBiT cells): 90 nM

Structure (SMILES): Cc1c(NC(=O)N2CC(O)(CC(C)(C)C)C2)cc(F)cc1-c1ncnc2[nH]c(-c3cnn(CC(=O)N4CCC5(CC4)CN(CCNC(=O)CCCC(=O)N4CCN(c6ccc7c(NCCN)nc(C8(c9ccc(Cl)cc9)CCCCC8)nc7c6)CC4)CCO5)c3)cc12 [DBt-10]
- relative potency change between CBt sensitive and resistant TMD8 cells [2]: did not show any relative potency differences
- BTK degradation in TMD8 CBt sensitive (WT) vs resistant cells (BTK): equipotent degradation of BTK

Structure (SMILES): Cc1nc(Nc2ncc(C(=O)Nc3c(C)cccc3Cl)s2)cc(N2CCC(OC3CCN(CCCCCCCC(=O)N4CCN(c5ccc6c(NCCN)nc(C7(c8ccc(Cl)cc8)CCCCC7)nc6c5)CC4)CC3)CC2)n1 [DDa-1]
- LIMK2 protein levels (LIMK2): significant reduction in protein levels
- LYN protein levels (LYN): not

Structure (SMILES): CC(=O)N1CCN(c2ccc3c(NCCN)nc(C4(c5ccc(Cl)cc5)CCCCC4)nc3c2)CC1 [compound 13]
- effect of co-treatment on DBr-1 mediated BRD9 degradation (BRD9 [3]): did not affect the degradation efficacy of DBr-1
